According to patent US6686345B2, “DNA-cleaving antitumor agents” (Research Development Foundation, priority 1998, dated 2004):
Entries after “also recorded” stand apart in the source; their conditions may differ.

How the values were obtained:
supercoiled plasmid DNA = experiment: DNA cleavage of supercoiled plasmid DNA by aza-enediyne heterocycles (thiazolium and benzothiazolium salts); type: biochemical; conditions: for DNA Cleavage 100 μM: 100 μM compound; for DNA Cleavage 100 μM / DNA Cleavage 1 mM: 50 μM bp DNA, TRIS pH 8.0, 24 hrs at 37° C.; for DNA Cleavage 1 mM: 1 mM compound
Protocol: The DNA cleavage efficiency of aza-enediyne heterocycles is determined by incubating the azaenediynes with supercoiled plasmid DNA. The supercoiled DNA was diluted to 50 μM bp in 50 mM TRIS buffer at pH 8.0. […] DNA topoisomers were separated by electrophoresis (0.8% agarose, 1× TBE, 82V, 1 hr 10 min) and stained with ethidium bromide (0.25 μg/mL) and images were analyzed by phosphorimger.
(§1) The normalized percent cleavage of DNA is determined as: [formula]
DNA cleavage normalized for the small amount (10-25%) of nicked relaxed DNA in control samples (DMSO-only treated DNA) is reported in Table 6.

[1] = Stability of heterocyclic salts in methanol (CD3OD) monitored by NMR; conditions: solution in CD3OD monitored by NMR
Source text: The stability of solutions of these salts in CD3OD can be monitored by NMR.

[2] = system: supercoiled ΦX174 plasmid DNA; experiment: DNA cleavage by 2-alkynyl pyridinium triflate salts; type: biochemical, ΦX174 Phage; conditions: for Normalized Percent Cleavage of ΦX174 Phage (RF-1) DNA: 24 hrs at 37° C., pH 8.0; for DNA cleavage (in words): pyridinium series
Protocol: as §1
The DNA cleavage efficiency of these azaenediyne heterocycles was determined by incubation with aqueous solutions of supercoiled ΦX174 plasmid DNA. The supercoiled DNA was diluted to 50 μM bp in 50 mM TRIS pH 8.0. The reaction mixtures containing compound and 13% v/v DMSO-d6 were incubated for 24 hrs at 37° C. DNA topoisomers were separated by agarose gel electrophoresis (1 X TBE, 90V, 1 hr), stained with ethidium bromide (0.25 μg/mL), and the images were analyzed on a fluorimager. DNA cleavage results are reported as normalized percent cleavage in Table 7 as for the thiazolium and benzothiazolium salts in Example 8.

[3] = Thermal isomerization (aza-Bergman rearrangement) of C,N-dialkynylimine; type: physicochemical; conditions: slower than 5a to 7a
Source text: A general synthetic route to C,N-dialkynylimines (3-aza-enediynes) 5a,b is depicted in FIG. 1. These imines are isolated as air stable yellow oils after chromatography. When a benzene solution of 5a is heated under reflux overnight, nitrile 7a is produced in 88% yield (FIG. 2). The nitrile 7a is isolated as a single stereoisomer, which is assigned the (Z)-geometry by comparison with authentic (E)-7a. Authentic (E)-7a was synthesized by the palladium-catalyzed coupling of 1-propynyltributyltin and the (E)-enol triflate of 2-cyano-2-phenylacetophenone. Heating a solution of imine 5a in benzene containing a large excess of 1,4-cyclohexadiene (1,4-chd) as a hydrogen atom trap, or in neat 1,4-chd at 150° C. for two hours affords the nitrile 7a as the only isolable product. The imine 5b contains a pendent double bond that could serve as an intramolecular trap for the putative diradical intermediate 6 (FIG. 2). We find that heating a benzene solution of 5b containing a large excess of 1,4-chd affords only the nitrile 7b in nearly quantitative yield. In none of these reactions were any products (e.g. 8 or 10) which would arise from trapping of the 2,5-ddp intermediate 6 detected.
The ^t½ for the Bergman cyclization of the corresponding (Z)-1,6-diphenylhex-3-ene-1,5-diyne to o-terphenyl is about 1000-fold slower than the rearrangement of 5a to 7a.

Supercoiled DNA = experiment: DNA cleavage by heterocyclic variants (KeAZB series); type: biochemical
Protocol: The gel depicted in FIG. 3 represents the results of the DNA cleavage experiment with KeAZB002. Supercoiled DNA (50 uM in 50 mM TRIS phosphate buffer, pH 8) was incubated with 0 (lanes 1, 5), 1 (lanes 2, 6), 100 (lanes 3, 7), or 1000 (lane 4) uM of KeAZB002 for 24 hours at 20° C. Samples for lanes 5-8 were loaded onto the agarose gel, whereas samples for lanes 1-4 were heated at 70° C. for 90 sec. prior to loading onto the gel. After electrophoresis at 60 V for 2 hrs, the DNA products were visualized with ethidium bromide staining and UV transillumination.

[4] = system: various cancer cell lines; experiment: In vitro cytotoxicity of KeAZB002 on various cancer cell lines; type: cell-based; conditions: variety of cancer cell types, FIG. 16
[5] = system: A549 non-small cell lung cancer cells; experiment: In vivo evaluation in SCID mice implanted with A549 cells
[6] = Stability of KeAZB002 in aqueous solution; type: physicochemical
MCF-7 cancer cells = experiment: In vitro cancer cell cytotoxicity of pyridinium salts, MCF-7; type: cell-based; conditions: for IC50: Homo sapiens, MCF7, MCF-7 cells, growth inhibition
Source text: (§2) The 2-ethynyl-1-prop-2-ynyl-pyridinium triflate salt has less activity in the in vitro cytotoxicity assay, perhaps due to the instability of this compound in nucleophilic solvents. The IC50 (50% Inhibition Concentration) is defined as the test compound concentration where the increase from time 0 in the number or mass of treated cells is only 50% as much as the corresponding increase in the vehicle-control at the end of experiment.

A549 cancer cells = experiment: In vitro cancer cell cytotoxicity of pyridinium salts, A549; type: cell-based; conditions: for IC50: Homo sapiens, A549 cells, growth inhibition
Source text: as §2

C#CC[n+]1c(C#Cc2ccccc2)sc2ccccc21
DNA Cleavage 100 μM (supercoiled plasmid DNA): 46% | DNA Cleavage 1 mM (supercoiled plasmid DNA): 100% | Stability in MeOH (Initial Decomposition) [1]: ˜30 min

C#CC[n+]1c(C#Cc2ccc(C)cc2)sc2ccccc21
DNA Cleavage 1 mM (supercoiled plasmid DNA): 100% | Stability in MeOH (Initial Decomposition) [1]: 0.333 to 0.5 h

C[n+]1c(C#Cc2ccccc2)sc2ccccc21
DNA Cleavage 1 mM (supercoiled plasmid DNA): 96% | Stability in MeOH (Initial Decomposition) [1]: 0.167 to 0.25 h

C#CC[n+]1c(C#C[Si](C)(C)C)sc2ccccc21
DNA Cleavage 1 mM (supercoiled plasmid DNA): 100%

C#CC[n+]1c(C#C[Si](C(C)C)(C(C)C)C(C)C)sc2ccccc21
DNA Cleavage 1 mM (supercoiled plasmid DNA): 0%

C(#Cc1nc2ccccc2s1)c1ccccc1
DNA Cleavage 1 mM (supercoiled plasmid DNA): 5% | Stability in MeOH (Initial Decomposition) [1]: >24 h

C#CC[n+]1cccnc1C#Cc1ccccc1
DNA Cleavage 100 μM (supercoiled plasmid DNA): 14.4% | DNA Cleavage 1 mM (supercoiled plasmid DNA): 43.3% | Stability in MeOH (Initial Decomposition) [1]: >24 h

C#CC[n+]1c(-c2ccccc2)c(-c2ccccc2)n(C)c1C#Cc1ccccc1
DNA Cleavage 100 μM (supercoiled plasmid DNA): 1.4% | DNA Cleavage 1 mM (supercoiled plasmid DNA): 10% | Stability in MeOH (Initial Decomposition) [1]: >24 h

C[n+]1ccsc1C#Cc1ccccc1
DNA Cleavage 1 mM (supercoiled plasmid DNA): 27%

C(#Cc1nccs1)c1ccccc1
DNA Cleavage 1 mM (supercoiled plasmid DNA): 1.5% | Stability in MeOH (Initial Decomposition) [1]: >24 h

C#CC[n+]1ccccc1C#C[Si](C(C)C)(C(C)C)C(C)C [1-prop-2-ynyl-2[(triisopropyl-silanyl)-ethynyl]-pyridinium triflate]
Normalized Percent Cleavage of ΦX174 Phage (RF-1) DNA ([2]; 1 μM): 0% | Normalized Percent Cleavage of ΦX174 Phage (RF-1) DNA ([2]; 10 μM): 8.1% | Normalized Percent Cleavage of ΦX174 Phage (RF-1) DNA ([2]; 50 μM): 49% | Normalized Percent Cleavage of ΦX174 Phage (RF-1) DNA ([2]; 100 μM): 77% | DNA cleavage (in words) ([2]; ΦX174 DNA): cleaves DNA less efficiently than all of the other 2-alkynyl substituted analogs

C#CC[n+]1ccccc1C#C[Si](C)(C)C [1-prop-2-ynyl-2[(trimethyl-silanyl)-ethynyl]-pyridinium triflate]
Normalized Percent Cleavage of ΦX174 Phage (RF-1) DNA ([2]; 1 μM): 9% | Normalized Percent Cleavage of ΦX174 Phage (RF-1) DNA ([2]; 10 μM): 34% | Normalized Percent Cleavage of ΦX174 Phage (RF-1) DNA ([2]; 50 μM): 73% | Normalized Percent Cleavage of ΦX174 Phage (RF-1) DNA ([2]; 100 μM): 89%

C(#Cc1ccccc1)/C=C\C#Cc1ccccc1 [(Z)-1,6-diphenylhex-3-ene-1,5-diyne]
t½ for the Bergman cyclization relative to rearrangement of 5a to 7a [3]: about 1000 fold

Cn1c(C#Cc2ccccc2)[n+](CC#Cc2ccccc2)c2ccccc21.F[B-](F)(F)F [KeAZB002, N-phenylpropargyl-N-methyl-2-phenylethynylbenzimidazolium tetrafluoroborate]
DNA cleavage (in words) (Supercoiled DNA): cleaves DNA at micromolar concentrations; also recorded: cleaves the DNA, producing frank single strand breaks; also recorded: strongly temperature dependent | in vitro cytotoxicity (in words) [4]: shows activity against several tumor cell lines in vitro; also recorded: cytotoxic to a variety of cancer cell types | antitumor activity in vivo (in words) [5]: demonstrates antitumor activity in vivo; also recorded: modest antitumor activity | tumor weight ([5]; seventeen days, versus control): decreased consistently in comparison to control | stability in basic aqueous solution ([6]; basic aqueous solution): undergoes a series of reactions | stability in water ([6]; water at neutral pH): stable indefinitely

C#CC[n+]1ccccc1C#Cc1ccccc1.O=S(=O)([O-])C(F)(F)F [KeAZB009, N-propargyl-2-phenylethynylpyridiniumium triflate]
DNA cleavage (in words) (Supercoiled DNA): more potent DNA cleavage than KeAZB002

C#CC[n+]1ccsc1C#Cc1ccccc1 [drawing 119]
DNA Cleavage 100 μM (supercoiled plasmid DNA): 76% | DNA Cleavage 1 mM (supercoiled plasmid DNA): 100% | Stability in MeOH (Initial Decomposition) [1]: ˜24 hr

C#CC[n+]1ccsc1C#Cc1ccccc1 [drawing 121]
Normalized Cleavage (%) (supercoiled plasmid DNA; Concentration 25 μM): 37.31% | Normalized Cleavage (%) (supercoiled plasmid DNA; Concentration 50 μM): 56.84% | Normalized Cleavage (%) (supercoiled plasmid DNA; Concentration 100 μM): 67.29% | Normalized Cleavage (%) (supercoiled plasmid DNA; Concentration 250 μM): 92.79%

C#CC[n+]1ccccc1C#Cc1ccccc1 [drawing 122, 1-prop-2-ynyl-2-phenylethynyl pyridinium triflate]
Normalized Percent Cleavage of ΦX174 Phage (RF-1) DNA ([2]; 1 μM): 0.4% | Normalized Percent Cleavage of ΦX174 Phage (RF-1) DNA ([2]; 10 μM): 17% | Normalized Percent Cleavage of ΦX174 Phage (RF-1) DNA ([2]; 50 μM): 83% | Normalized Percent Cleavage of ΦX174 Phage (RF-1) DNA ([2]; 100 μM): 87%

C#CC[n+]1ccccc1C#Cc1ccc(OC)cc1 [drawing 123, 1-prop-2-ynyl-2[(4-methoxyphenyl)-ethynyl]-pyridinium triflate]
Normalized Percent Cleavage of ΦX174 Phage (RF-1) DNA ([2]; 1 μM): 7.5% | Normalized Percent Cleavage of ΦX174 Phage (RF-1) DNA ([2]; 10 μM): 71% | Normalized Percent Cleavage of ΦX174 Phage (RF-1) DNA ([2]; 50 μM): 97% | Normalized Percent Cleavage of ΦX174 Phage (RF-1) DNA ([2]; 100 μM): 100% | lowest concentration producing DNA cleavage ([2]; ΦX174 DNA): 1 µM | DNA cleavage (in words) ([2]; ΦX174 DNA): most potent DNA cleavage activity

C#CC[n+]1ccccc1C#Cc1ccc(C(F)(F)F)cc1 [drawing 124, 1-prop-2-ynyl-2[(4-trifluoromethylphenyl)-ethynyl]-pyridinium triflate]
Normalized Percent Cleavage of ΦX174 Phage (RF-1) DNA ([2]; 1 μM): 0.9% | Normalized Percent Cleavage of ΦX174 Phage (RF-1) DNA ([2]; 10 μM): 33% | Normalized Percent Cleavage of ΦX174 Phage (RF-1) DNA ([2]; 50 μM): 78% | Normalized Percent Cleavage of ΦX174 Phage (RF-1) DNA ([2]; 100 μM): 90%

C#CC[n+]1ccccc1C#C [drawing 125, 1-prop-2-ynyl-2-ethynyl-pyridinium triflate]
Normalized Percent Cleavage of ΦX174 Phage (RF-1) DNA ([2]; 1 μM): 12% | Normalized Percent Cleavage of ΦX174 Phage (RF-1) DNA ([2]; 10 μM): 39% | Normalized Percent Cleavage of ΦX174 Phage (RF-1) DNA ([2]; 50 μM): 77% | Normalized Percent Cleavage of ΦX174 Phage (RF-1) DNA ([2]; 100 μM): 85% | growth inhibition of MCF-7 cells (in words) (MCF-7 cancer cells; MCF-7): less activity | growth inhibition of A549 cells (in words) (A549 cancer cells; A549): less activity

C#CC[n+]1ccccc1CCc1ccccc1 [drawing 128, 1-prop-2-ynyl-2-phenethyl-pyridinium triflate]
Normalized Percent Cleavage of ΦX174 Phage (RF-1) DNA ([2]; 1 μM): 2% | Normalized Percent Cleavage of ΦX174 Phage (RF-1) DNA ([2]; 10 μM): 4% | Normalized Percent Cleavage of ΦX174 Phage (RF-1) DNA ([2]; 50 μM): 10% | Normalized Percent Cleavage of ΦX174 Phage (RF-1) DNA ([2]; 100 μM): 13% | DNA cleavage (in words) ([2]; ΦX174 DNA): does not cleave DNA to any appreciable extent

C#CC[n+]1ccccc1C#Cc1ccccc1 [drawing 129]
IC50 (MCF-7 cancer cells): 3.1 µM | IC50 (A549 cancer cells): 3.3 µM

C#CC[n+]1ccccc1C#Cc1ccc(OC)cc1 [drawing 130]
IC50 (MCF-7 cancer cells): 8.7 µM | IC50 (A549 cancer cells): 2.7 µM

C#CC[n+]1ccccc1C#Cc1ccc(C(F)(F)F)cc1 [drawing 131]
IC50 (MCF-7 cancer cells): 10 µM | IC50 (A549 cancer cells): 9.8 µM

C#CC[n+]1ccccc1C#C [drawing 132]
IC50 (MCF-7 cancer cells): 63 µM | IC50 (A549 cancer cells): 21 µM

C#CC[n+]1ccccc1CCc1ccccc1 [drawing 133]
IC50 (MCF-7 cancer cells): 23 µM | IC50 (A549 cancer cells): 11 µM
